Here are results for eight compounds from ChEMBL document CHEMBL1201862, “PubChem BioAssay data set” (2004).

Assay in all cases: DTP human tumour cell line panel, 48 h
For assay [1], the system named is SN12C.
The subject of assay [2] is UACC-257.
Assay [3] has as its system SNB-19.
In assay [4] the test system is T47D.
Assay [5] concerns Hs-578T.
The test system of assay [6] is UO-31.
The subject of assay [7] is ACHN.
The test system of assay [8] is OVCAR-3.
Assay [9] deals with KM12.
Assay [10] has as its system MDA-MB-231.
For assay [11], the system named is UACC-62.
Assay [12] concerns SW-620.
The test system of assay [13] is K562.
The subject of assay [14] is OVCAR-4.
Assay [15] relates to SK-MEL-28.
Assay [16] deals with Malme-3M.
Assay [17] has as its system LOX IMVI.
Assay [18] concerns SR.
The test system of assay [19] is HL-60.

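Tested at 5 concentrations; 48 h exposure; 96-well plates; endpoints linearly interpolated, else capped at highest concentration. GI50 marks 50% less growth.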 Active and inactive are the calls of the source. Cut-off read from the data, not from the text of the source: active = GI50 up to about 1.1 µM and inactive = higher.

Broadly, the GI50 is the concentration that inhibits growth by half. For the compound `O=C(Nc1sccc1S(=O)(=O)c1ccccc1)c1ccccc1`, the GI50 in [1], in assay [2], in assay [3], in assay [4], in assay [5] and in assay [6] was > 100 µM (inactive) each time. Moreover, the GI50 is > 100 µM (inactive) in assay [7]; 99.5 µM (inactive) in assay [8]; > 100 µM (inactive) in [9]; > 36.1 µM (inactive) in assay [10]; > 100 µM (inactive) in assay [11]; > 84.3 µM (inactive) in assay [12]. In addition, the GI50 is 1.91 µM (inactive) in [13]; > 57.9 µM (inactive) in assay [14]; > 100 µM (inactive) in assay [15]; > 100 µM (inactive) in assay [16]; > 100 µM (inactive) in assay [17].

With `CC(=O)Nc1ccc2nc(-c3ccccn3)c(-c3ccccn3)nc2c1`, the GI50 in [1], in assay [18], in assay [2], in assay [19], in assay [3] and in assay [5] was > 100 µM (inactive) throughout. Moreover, the GI50 in [6], in assay [7], in assay [8], in assay [9], in assay [10] and in assay [11] was > 100 µM (inactive) in each case. The GI50 in assay [12], in assay [13], in assay [14], in assay [15], in assay [16] and in assay [17] was > 100 µM (inactive) in each case.

For `CC1=CC(C2/C(=N/O)C=C(C)CC2(C)C)C(O)C(C)(C)C1` (stereo not drawn), the GI50 is 18.4 µM (inactive) in assay [1]; 15.5 µM (inactive) in assay [2]; 16 µM (inactive) in [19]; 15.8 µM (inactive) in assay [3]; 12.8 µM (inactive) in assay [4]; 31.8 µM (inactive) in assay [5]. For the same compound, the GI50 was 15.6 µM (inactive) in assay [6]; 18.9 µM (inactive) in [7]; 11.1 µM (inactive) in [8]; 15.9 µM (inactive) in assay [9]; 17.3 µM (inactive) in assay [10]; 15.2 µM (inactive) in [11]. Also, the GI50 is 15.7 µM (inactive) in [12]; 14.2 µM (inactive) in assay [13]; 15 µM (inactive) in assay [14]; 15.7 µM (inactive) in assay [15]; 16.8 µM (inactive) in [17].

For `COC(=O)[C@@H]1[C@H]2CC[C@]3(C)[C@@H](OC(C)=O)CC[C@H]3[C@@H]2CC[C@H]1C(C)=O`, the GI50 in assay [1], in assay [2], in assay [19], in assay [3], in assay [4] and in assay [5] was > 100 µM (inactive) each time. The GI50 in assay [6], in assay [7], in assay [8], in [9], in [10] and in [11] was > 100 µM (inactive) each time. Besides, the GI50 in [12], in assay [13], in assay [15], in [16] and in [17] was > 100 µM (inactive) throughout.

In the case of `C#Cc1cc(Br)c(OC(=O)C(C)(C)C)c(-c2cc(C#C)cc(Br)c2OC(=O)C(C)(C)C)c1`, the GI50 in assay [1] was 53 µM (inactive); in [2] it was 36.1 µM (inactive); in assay [19], 6.98 µM (inactive); in assay [3], 43.9 µM (inactive); in assay [4] it was 18.3 µM (inactive); in assay [5], 53.6 µM (inactive). The GI50 in assay [7] is 21.4 µM (inactive); in [8], 80 µM (inactive); in assay [9], 37.9 µM (inactive); in [10], 35.1 µM (inactive); in assay [11] it was 81.5 µM (inactive); in assay [12], 27 µM (inactive). Moreover, the GI50 in assay [13] is 35.8 µM (inactive); in assay [14] it was 73.1 µM (inactive); in assay [15], 61.2 µM (inactive); in [16] it was > 100 µM (inactive); in [17], 19.7 µM (inactive).

On to `CC1=C(C(=O)NC(C)(C)C)CC(C(=O)NC(C)(C)C)C(C)N1` (stereo not drawn), for which the GI50 in [1] was > 100 µM (inactive); in [2] it was > 100 µM (inactive); in [19], > 100 µM (inactive); in assay [3], 85.1 µM (inactive); in [4], > 100 µM (inactive); in assay [5] it was > 100 µM (inactive). For the same compound, the GI50 in assay [6], in assay [7], in [8], in assay [9], in assay [10] and in assay [11] was > 100 µM (inactive) in each case. Besides, the GI50 in assay [12], in [13], in [14] and in assay [17] was > 100 µM (inactive) in each case.

As to `COc1cc(COC(=O)N2CCCCC2C(=O)O)c([N+](=O)[O-])cc1OC` (stereo not drawn), the GI50 in assay [1], in assay [18], in assay [2], in assay [19], in assay [3] and in assay [4] was > 100 µM (inactive) each time. Also, the GI50 in [5], in assay [6], in assay [7], in [8], in assay [9] and in assay [11] was > 100 µM (inactive) each time. Besides, the GI50 in assay [12], in assay [13], in [15] and in assay [16] was > 100 µM (inactive) each time.

For `O=C1/C(=C/c2ccco2)N=C(c2ccccc2)N1c1cc2cc(Sc3ccccc3)ccc2[nH]1`, the GI50 in assay [1] was 17.4 µM (inactive); in assay [18] it was 5.18 µM (inactive); in assay [19] it was 0.214 µM (active); in assay [3], > 25 µM (inactive); in [4], 15.8 µM (inactive); in assay [5] it was 15.3 µM (inactive). The GI50 in [6] was 18.8 µM (inactive); in assay [7], > 25 µM (inactive); in assay [11], 21.8 µM (inactive); in assay [12], 13.1 µM (inactive); in assay [13], 7.96 µM (inactive); in [14], > 25 µM (inactive). Besides, the GI50 in assay [15] is > 25 µM (inactive); in assay [16] it was > 25 µM (inactive); in assay [17], 12.3 µM (inactive).
